Results as given in patent US20260335398A1, “METHODS FOR TREATING PANCREATIC CANCER WITH A COMBINATION OF DES-METHYL PATEAMINE A AND A CLASS I HDAC INHIBITOR” (Baylor University, priority 2023, published 2026).

How the values were obtained:
[1] = system: H3K9ac; assay: Immunoblot of H3K9ac protein levels (FIGS. 5A-5C, 9C); format: cell-based; conditions: romidepsin 15 nM 6 h; with or without DMPatA 2 nM
Description: FIGS. 5A-5C are images of immunoblots of protein levels from whole cell extracts of MIA PaCa-2 cell line following treatment with representative combinations Class 1 HDAC inhibitors and DMPatA, DMPatA alone, and HDAC inhibitor alone. FIG. 5A compares immunoblots of H3K9ac (top panel) and GAPDH (bottom panel) protein levels from whole cell extracts of MIA PaCa-2 cells following treatment with the combination of romidepsin and DMPatA and single drugs. Romidepsin treatment was for 6 hours. FIG. 5B compares immunoblots of H3K9ac protein levels from whole cell extracts of MIA PaCa-2 and KLM cells untreated or following treatment with the combination of entinostat and DMPatA and single drugs. Treatments were for various timepoints ranging from 6 to 24 hours. […]
This apparent hypertranscription observed with the combination, was confirmed by the increase in nascent RNA output above the level of normal cells, following treatment for a total of 18 hours (i.e., 6-hour romidepsin followed by 12-hour washout with or without 2 nM DMPatA), quantified using incorporation of the modified RNA precursor 5-EU. […] Because HDAC inhibitors cause histone hyperacetylation and having observed the increase in gene expression following treatment with the combination, the impact of the combination on histone acetylation was assessed. […]

[2] = system: p-RPA; assay: Immunoblot of phospho-RPA2 (FIG. 11A); format: cell-based; conditions: total 24 h (romidepsin 6 h + 18 h with/without 2 nM DMPatA)
Description: FIG. 11A compares immunoblots of p-RPA and p-CHK1 protein levels from whole cell extracts following treatment with the combination and romidepsin for a total of 24 h (i.e., romidepsin treatment was for 6 h followed by 18-hour incubation with 2 nM DMPatA (combo) or without (Romi alone)).
Having observed R-loop accumulation following treatment with the combination, it was hypothesized that hypertranscription, persistent hyperacetylation, and R-loop accumulation could increase the incidence of transcription replication conflicts, genome instability, and DNA damage and contribute to cell death. […]
Western blotting was carried out as previously described (Luchenko V L, Litman T, Chakraborty A R, et al. 65. Membranes were probed with primary antibodies: Phospho-Histone H2A.X (Ser139) (1:1000, Millipore Sigma #05-636), GAPDH (1:10000, Abcam #ab8245), c-Myc (1:1000, Abcam #ab32072), β-Actin (1:1000, Cell Signaling Technology (CST), #8457), Phospho-RPA32/RPA2 (Ser33) (1:1000, Cell Signaling Technology #10148), Phospho-Chk1 (Ser345) (1:1000, CST #2341), and secondary antibodies IRDye® 680RD Goat anti-Mouse and IRDye® 800CW Goat anti-Rabbit (both from LI-COR Biosciences). Signal quantification was performed using the Odyssey CLx imaging system (LI-COR Biosciences), capturing various exposures within the linear range with ImageStudio software V3.1 (LI-COR Biosciences).

With `C/C=C1\NC(=O)[C@H]2CSSCC/C=C/[C@H](CC(=O)N[C@H](C(C)C)C(=O)N2)OC(=O)[C@H](C(C)C)NC1=O` [romidepsin] the H3K9 acetylation [1] was “only a small effect” and the phospho-RPA2 [2] was “Accumulation”.
